Laboratory results reported in PubChem BioAssay AID2060627 (Molecular Pharmacology Branch, DTP, NCI, 2025).

Test system: 156681-154-R-J1-PDC complex spheroid viability
Assay: Anticancer human tumor 156681-154-R-J1-PDC patient-derived melanoma cell line growth inhibition [CLK]
Settings: second compound 0.0316 µM; first compound 3.16 µM; active compounds read low
In short: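 Multi-cell-type spheroids combined patient-derived tumor cells with HUVEC endothelial cells and human mesenchymal stem cells. Paired agents were dosed in half-log steps down from about clinical Cmax, or from 10 microM where Cmax was unknown.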
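Note: spheroids exposed to the agents for seven days; 100% = DMSO vehicle control viability.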

Row | Compound | viability, T/C [%]
1 | CC(CO)NC(=O)c1cc(-c2ccc(Cl)cc2)nn(-c2cnn(C)c2)c1=O (stereo unspecified) + CNC(=O)c1ccc(Nc2nc(OC3CCCC3)c3c(-c4ccc5nc(C)oc5c4)c[nH]c3n2)c(OC)c1 | 86.5
2 | Nc1ccn(C2OC(CO)C(O)C2(F)F)c(=O)n1 (stereo unspecified) + CN1CCN(c2cc(C(=O)Nc3cc4cc(-c5cnn(C)c5)ccc4cn3)ccn2)CC1 | 12
3 | COc1ccc([C@@H](O)c2cc(-c3ncnc4cc(N5CCOCC5)ccc34)c(F)cc2Cl)nn1 + CNC(=O)c1ccc(Nc2nc(OC3CCCC3)c3c(-c4ccc5nc(C)oc5c4)c[nH]c3n2)c(OC)c1 | 34.6
4 | COC1C=CCC(C)C(C)S(=O)(=O)NC(=O)c2ccc3c(c2)N(CC2CCC21)CC1(CCCc2cc(Cl)ccc21)CO3 (stereo unspecified) + CN1CCN(c2cc(C(=O)Nc3cc4cc(-c5cnn(C)c5)ccc4cn3)ccn2)CC1 | 13.8

Same assay, conditions: second compound 0.0316 µM; first compound 10 µM; active compounds read low

Row | Compound | viability, T/C [%]
5 | CC(CO)NC(=O)c1cc(-c2ccc(Cl)cc2)nn(-c2cnn(C)c2)c1=O (stereo unspecified) + CNC(=O)c1ccc(Nc2nc(OC3CCCC3)c3c(-c4ccc5nc(C)oc5c4)c[nH]c3n2)c(OC)c1 | 56.8
6 | Nc1ccn(C2OC(CO)C(O)C2(F)F)c(=O)n1 (stereo unspecified) + CN1CCN(c2cc(C(=O)Nc3cc4cc(-c5cnn(C)c5)ccc4cn3)ccn2)CC1 | 16.9
7 | COc1ccc([C@@H](O)c2cc(-c3ncnc4cc(N5CCOCC5)ccc34)c(F)cc2Cl)nn1 + CNC(=O)c1ccc(Nc2nc(OC3CCCC3)c3c(-c4ccc5nc(C)oc5c4)c[nH]c3n2)c(OC)c1 | 29
8 | COC1C=CCC(C)C(C)S(=O)(=O)NC(=O)c2ccc3c(c2)N(CC2CCC21)CC1(CCCc2cc(Cl)ccc21)CO3 (stereo unspecified) + CN1CCN(c2cc(C(=O)Nc3cc4cc(-c5cnn(C)c5)ccc4cn3)ccn2)CC1 | 1.82

Same assay, conditions: second compound 0.1 µM; first compound 0.00316 µM; active compounds read low

Row | Compound | viability, T/C [%]
9 | CCc1c2c(nc3ccc(O)cc13)-c1cc3c(c(=O)n1C2)COC(=O)[C@]3(O)CC + CNC(=O)c1ccc(Nc2nc(OC3CCCC3)c3c(-c4ccc5nc(C)oc5c4)c[nH]c3n2)c(OC)c1 | 24.1

Same assay, conditions: second compound 0.1 µM; first compound 0.01 µM; active compounds read low

Row | Compound | viability, T/C [%]
10 | CCc1c2c(nc3ccc(O)cc13)-c1cc3c(c(=O)n1C2)COC(=O)[C@]3(O)CC + CNC(=O)c1ccc(Nc2nc(OC3CCCC3)c3c(-c4ccc5nc(C)oc5c4)c[nH]c3n2)c(OC)c1 | 16.7

Same assay, conditions: second compound 0.1 µM; first compound 0.0316 µM; active compounds read low

Row | Compound | viability, T/C [%]
11 | CCc1c2c(nc3ccc(O)cc13)-c1cc3c(c(=O)n1C2)COC(=O)[C@]3(O)CC + CNC(=O)c1ccc(Nc2nc(OC3CCCC3)c3c(-c4ccc5nc(C)oc5c4)c[nH]c3n2)c(OC)c1 | 14
12 | CC(CO)NC(=O)c1cc(-c2ccc(Cl)cc2)nn(-c2cnn(C)c2)c1=O (stereo unspecified) + CNC(=O)c1ccc(Nc2nc(OC3CCCC3)c3c(-c4ccc5nc(C)oc5c4)c[nH]c3n2)c(OC)c1 | 53.1
13 | Nc1ccn(C2OC(CO)C(O)C2(F)F)c(=O)n1 (stereo unspecified) + CN1CCN(c2cc(C(=O)Nc3cc4cc(-c5cnn(C)c5)ccc4cn3)ccn2)CC1 | 19
14 | COc1ccc([C@@H](O)c2cc(-c3ncnc4cc(N5CCOCC5)ccc34)c(F)cc2Cl)nn1 + CNC(=O)c1ccc(Nc2nc(OC3CCCC3)c3c(-c4ccc5nc(C)oc5c4)c[nH]c3n2)c(OC)c1 | 44.7
15 | COC1C=CCC(C)C(C)S(=O)(=O)NC(=O)c2ccc3c(c2)N(CC2CCC21)CC1(CCCc2cc(Cl)ccc21)CO3 (stereo unspecified) + CN1CCN(c2cc(C(=O)Nc3cc4cc(-c5cnn(C)c5)ccc4cn3)ccn2)CC1 | 90.1

Same assay, conditions: second compound 0.1 µM; first compound 0.1 µM; active compounds read low

Row | Compound | viability, T/C [%]
16 | CCc1c2c(nc3ccc(O)cc13)-c1cc3c(c(=O)n1C2)COC(=O)[C@]3(O)CC + CNC(=O)c1ccc(Nc2nc(OC3CCCC3)c3c(-c4ccc5nc(C)oc5c4)c[nH]c3n2)c(OC)c1 | 17.7
17 | CC(CO)NC(=O)c1cc(-c2ccc(Cl)cc2)nn(-c2cnn(C)c2)c1=O (stereo unspecified) + CNC(=O)c1ccc(Nc2nc(OC3CCCC3)c3c(-c4ccc5nc(C)oc5c4)c[nH]c3n2)c(OC)c1 | 84.6
18 | Nc1ccn(C2OC(CO)C(O)C2(F)F)c(=O)n1 (stereo unspecified) + CN1CCN(c2cc(C(=O)Nc3cc4cc(-c5cnn(C)c5)ccc4cn3)ccn2)CC1 | 13.4
19 | COc1ccc([C@@H](O)c2cc(-c3ncnc4cc(N5CCOCC5)ccc34)c(F)cc2Cl)nn1 + CNC(=O)c1ccc(Nc2nc(OC3CCCC3)c3c(-c4ccc5nc(C)oc5c4)c[nH]c3n2)c(OC)c1 | 64.6
20 | COC1C=CCC(C)C(C)S(=O)(=O)NC(=O)c2ccc3c(c2)N(CC2CCC21)CC1(CCCc2cc(Cl)ccc21)CO3 (stereo unspecified) + CN1CCN(c2cc(C(=O)Nc3cc4cc(-c5cnn(C)c5)ccc4cn3)ccn2)CC1 | 97.8

Same assay, conditions: second compound 0.1 µM; first compound 0.316 µM; active compounds read low

Row | Compound | viability, T/C [%]
21 | CCc1c2c(nc3ccc(O)cc13)-c1cc3c(c(=O)n1C2)COC(=O)[C@]3(O)CC + CNC(=O)c1ccc(Nc2nc(OC3CCCC3)c3c(-c4ccc5nc(C)oc5c4)c[nH]c3n2)c(OC)c1 | 14.9
22 | CC(CO)NC(=O)c1cc(-c2ccc(Cl)cc2)nn(-c2cnn(C)c2)c1=O (stereo unspecified) + CNC(=O)c1ccc(Nc2nc(OC3CCCC3)c3c(-c4ccc5nc(C)oc5c4)c[nH]c3n2)c(OC)c1 | 78.9
23 | Nc1ccn(C2OC(CO)C(O)C2(F)F)c(=O)n1 (stereo unspecified) + CN1CCN(c2cc(C(=O)Nc3cc4cc(-c5cnn(C)c5)ccc4cn3)ccn2)CC1 | 12.9
24 | COc1ccc([C@@H](O)c2cc(-c3ncnc4cc(N5CCOCC5)ccc34)c(F)cc2Cl)nn1 + CNC(=O)c1ccc(Nc2nc(OC3CCCC3)c3c(-c4ccc5nc(C)oc5c4)c[nH]c3n2)c(OC)c1 | 52.2
25 | COC1C=CCC(C)C(C)S(=O)(=O)NC(=O)c2ccc3c(c2)N(CC2CCC21)CC1(CCCc2cc(Cl)ccc21)CO3 (stereo unspecified) + CN1CCN(c2cc(C(=O)Nc3cc4cc(-c5cnn(C)c5)ccc4cn3)ccn2)CC1 | 81.2

Same assay, conditions: second compound 0.1 µM; first compound 1 µM; active compounds read low

Row | Compound | viability, T/C [%]
26 | CCc1c2c(nc3ccc(O)cc13)-c1cc3c(c(=O)n1C2)COC(=O)[C@]3(O)CC + CNC(=O)c1ccc(Nc2nc(OC3CCCC3)c3c(-c4ccc5nc(C)oc5c4)c[nH]c3n2)c(OC)c1 | 5.02
